Assay results as given in patent US7989640B2, “Sulfonylpyrrolidine modulators of androgen receptor function and method” (Bristol-Myers Squibb Company, priority 2004, dated 2011).

Tests used:
[1] = target: endogenous glucocorticoid receptor (A549 cells) (Homo sapiens, UniProt P04150); settings: concentration ≦10 μM; 10 ng/mL PMA stimulation; typical value of positive control
Procedure: The AP-1 assay is a cell-based luciferase reporter assay. A549 cells, which contain endogenous glucocorticoid receptor, were stably transfected with an AP-1 DNA binding site attached to the luciferase gene. Cells are then grown in RPMI+10% fetal calf serum (charcoal-treated)+Penicillin/Streptomycin with 0.5 mg/mL geneticin. Cells are plated the day before the assay at approximately 40000 cells/well. On assay day, the media is removed by aspiration and 20 μL assay buffer (RPMI without phenol red+10% FCS (charcoal-treated)+Pen/Strep) is added to each well. At this point either 20 μL assay buffer (control experiments), the compounds of the present invention (“test compounds”) (dissolved in DMSO and added at varying concentrations) or dexamethasome (100 nM in DMSO, positive control) are added to each well. The plates are then pre-incubated for 15 min at 37° C., followed by stimulation of the cells with 10 ng/mL PMA. The plates are then incubated for 7 h at 37° C. after which 40 μL luciferase substrate reagent is added to each well.

[2] = target: T1, AR (Rattus norvegicus, UniProt P15207)
T1 sequence (P15207 1-902): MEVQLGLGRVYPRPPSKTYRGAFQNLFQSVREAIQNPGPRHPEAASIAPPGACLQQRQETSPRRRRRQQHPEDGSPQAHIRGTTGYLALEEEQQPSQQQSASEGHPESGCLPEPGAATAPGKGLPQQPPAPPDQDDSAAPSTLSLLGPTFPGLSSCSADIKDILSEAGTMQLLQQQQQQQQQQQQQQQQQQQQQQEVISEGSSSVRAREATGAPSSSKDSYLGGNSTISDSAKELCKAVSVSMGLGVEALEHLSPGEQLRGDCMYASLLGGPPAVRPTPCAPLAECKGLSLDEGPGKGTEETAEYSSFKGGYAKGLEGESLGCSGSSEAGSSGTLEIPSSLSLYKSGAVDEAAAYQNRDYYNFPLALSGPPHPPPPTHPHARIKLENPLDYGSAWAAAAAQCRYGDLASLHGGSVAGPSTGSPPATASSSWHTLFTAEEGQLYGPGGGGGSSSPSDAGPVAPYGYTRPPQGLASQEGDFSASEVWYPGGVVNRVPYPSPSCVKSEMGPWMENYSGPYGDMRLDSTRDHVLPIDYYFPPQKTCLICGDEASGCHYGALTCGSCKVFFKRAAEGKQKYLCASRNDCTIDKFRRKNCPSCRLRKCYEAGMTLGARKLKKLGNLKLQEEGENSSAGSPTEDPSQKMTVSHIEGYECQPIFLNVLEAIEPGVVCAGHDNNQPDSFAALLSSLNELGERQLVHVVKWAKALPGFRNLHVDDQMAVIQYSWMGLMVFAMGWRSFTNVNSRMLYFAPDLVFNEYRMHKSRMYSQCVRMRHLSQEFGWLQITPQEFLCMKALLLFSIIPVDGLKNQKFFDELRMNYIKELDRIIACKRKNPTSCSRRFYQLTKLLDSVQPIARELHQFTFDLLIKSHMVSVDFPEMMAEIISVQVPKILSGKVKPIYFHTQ
Description: The activity of compounds of the present invention as AR agonists was investigated in an immature male rat model, a recognized test of anabolic effects in muscle and sustaining effects in sex organs for a given compound, as described in L. G. Hershberger et al., Proc. Soc. […] Biol. Med., 83, 175 (1953); B. L. Beyler et al, “Methods for evaluating anabolic and catabolic agents in laboratory animals”, J. Amer. Med. Women's Ass., 23, 708 (1968); H. Fukuda et al., “Investigations of the levator ani muscle as an anabolic steroid assay”, Nago Dai. Yak. Ken. Nem. 14, 84 (1966) the disclosures of which are herein incorporated by reference.
The basis of this assay lies in the well-defined action of androgenic agents on the maintenance and growth of muscle tissues and sexual accessory organs in animals and man. […] J. Anat. […] Ital. Biol. Sper. […] II. […] Ital. Biol. Sper. 42, 1600 (1966); A. Boris et al., Steroids 15, 61 (1970). As described above, the effects of androgens on maintenance of male sexual accessory organs, such as the prostate and seminal vesicles, is well described. Castration results in rapid involution and atrophy of the prostate and seminal vesicles. This effect can be reversed by exogenous addition of androgens. […]

[3] = target: wild type AR (MDA 453); settings: read-out: Kd for [3H]-DHT; MDA 453 cells, Scatchard analysis
Procedure: For the whole-cell binding assay, human LNCaP cells (T877A mutant AR) or MDA 453 (wild type AR) in 96-well microtiter plates containing RPMI 1640 or DMEM supplemented with 10% charcoal stripped CA-FBS (Cocaleco Biologicals) respectively, were incubated at 37° C. to remove any endogenous ligand that might be complexed with the receptor in the cells.
For the saturation analysis, the difference between the total binding and the non-specific binding, was defined as specific binding. […] See e.g. D. Rodbard, Mathematics and statistics of ligand assays: an illustrated guide: In: J. Langon and J. J. Clapp, eds., Ligand Assay, Masson Publishing U.S.A., Inc., New York, pp. 45-99, (1981), the disclosure of which is herein incorporated by reference.
[formula] After correcting for non-specific binding, IC50 values were determined. […] C2C12 Mouse Myoblast Transactivation Assay

Sequence of endogenous glucocorticoid receptor (A549 cells) (P04150 whole entry): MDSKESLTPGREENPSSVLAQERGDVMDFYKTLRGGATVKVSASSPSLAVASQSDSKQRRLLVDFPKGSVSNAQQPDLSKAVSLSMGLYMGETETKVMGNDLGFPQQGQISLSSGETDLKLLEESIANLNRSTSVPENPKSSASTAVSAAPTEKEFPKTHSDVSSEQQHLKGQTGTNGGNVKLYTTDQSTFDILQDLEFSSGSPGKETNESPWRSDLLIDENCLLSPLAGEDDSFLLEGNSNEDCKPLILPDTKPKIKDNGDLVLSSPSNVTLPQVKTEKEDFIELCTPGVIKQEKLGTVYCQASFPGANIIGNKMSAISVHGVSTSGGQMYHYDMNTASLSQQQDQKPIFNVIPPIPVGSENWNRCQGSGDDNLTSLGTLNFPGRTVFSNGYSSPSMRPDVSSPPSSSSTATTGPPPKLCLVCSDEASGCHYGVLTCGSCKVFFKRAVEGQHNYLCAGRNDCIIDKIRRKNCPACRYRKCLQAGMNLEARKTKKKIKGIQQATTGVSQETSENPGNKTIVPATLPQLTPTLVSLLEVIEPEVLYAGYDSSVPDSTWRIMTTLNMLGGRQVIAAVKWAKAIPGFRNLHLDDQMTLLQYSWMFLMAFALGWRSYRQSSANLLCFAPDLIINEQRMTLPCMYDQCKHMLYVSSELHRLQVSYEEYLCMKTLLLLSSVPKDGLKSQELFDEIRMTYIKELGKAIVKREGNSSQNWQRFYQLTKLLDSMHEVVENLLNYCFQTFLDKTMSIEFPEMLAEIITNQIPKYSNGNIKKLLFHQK

## C[C@@H]1C[C@H]2[C@@H]3CCC4=CC(=O)C=C[C@]4(C)[C@@]3(F)[C@@H](O)C[C@]2(C)[C@@]1(O)C(=O)CO [dexamethasone]
[1]
  suppression of activity (% inhibition of the reporter system vs buffer control): 65%

## CCC(=O)O[C@H]1CC[C@H]2[C@@H]3CCC4=CC(=O)CC[C@]4(C)[C@H]3CC[C@]12C [TP, testosterone propionate]
[2]; TP versus free T
  potency relative to free T: 10-30 fold
[2]; immature castrated rats, dosing for 3 days
  EC50 (increase in organ weight): ~0.03 mg

## tritiated dihydrotestosterone [[^3H]-DHT]
[3]
  Kd: 700 pM
